# According to patent publication US7851142B2, “Method of reducing glycolysis in platelet concentrates using L-carnitine, alkanoyl carnitines and salts thereof” (priority 1997, dated 2010):
# “Also recorded” adds a separate entry of the source.
# Columns and labels:
# [1] = test system: standard (non-leuko-reduced) platelet concentrates; conditions: extended storage (>5 days; five-ten days); cited from earlier work
# [2] = test system: prestorage-leuko-reduced platelet concentrates; experiment: Extended storage of prestorage-leuko-reduced random platelets (glycolysis and platelet quality tests); assay type: cell-based, human; conditions: 5 mM L-Carnitine, stored seven or eight days at 22° C.
# Protocol: Study Deign: Two ABO identical prestorage-leuko-reduced platelet concentrates produced by in-line filtration of platelet rich plasma (MedSep Inc., Corvina, Calif.) were pooled, then equally divided into two CLX (MedSep) containers. Either L-Carnitine (final concentration 5 mM) or saline was added to one bag of each pair of platelets. Platelets were stored for either seven or eight days at 22° C. on a flatbed agitator, then tested. Tests performed were pH, platelet count, supernatant glucose and lactate, surface p-selectin expression by flow cytometry, extent of shape change (ESC) and hypotonic shock response (HSR). Glucose consumption and lactate production were calculated as mM/10^12 platelets/day. Data were analyzed using paired t-tests.
# [3] = test system: packed RBC (red cell concentrates); experiment: In vitro measurements on red cell concentrates stored in AS-3 with or without LC; assay type: cell-based, human; conditions: AS-3 with 5 mM LC
# Protocol: Blood storage system. Standard CP2D/AS-3 system (Miles, Inc.) Using polyvinyl chloride (PVC) plastic with diethyl-(n)hexyl-phthalate (DEHP) as plasticizer was used. For each test unit, 245 mg LC (in 1.1 mL pure, pyrogen-free solution in a sterilized glass bottle) was added to the container holding the AS-3 additive solution to give a final concentration of 5 mM. For the control units, 1.1 mL 0.9% NaCl was added to the AS-3 solution using the same conditions. Addition of LC or saline to the bags was performed by injecting through a sampling site coupler with a syringe. This was done in a laminar flow hood under UV light.
# Donation & Processing. Standard phlebotomy and blood-drawing methods were used with collection of approximately 450±50 mL whole blood. The whole blood unit was held between 4-8 hours at room temperature before processing. The unit was centrifuged using standard conditions and, after centrifugation, the supernatant plasma was expressed off, and the sedimented packed RBC resuspended either in the standard AS-3 solution (control) or the carnitine-containing AS-3 solution (test). The suspended RBC units were stored at 4° C. for 42 days.
# In Vitro Measurements: Measurements performed on pre-(0 day) and post-(42-day) samples included RBC ATP levels; total and supernatant hemoglobin; hematocrit (Hct); RBC, WBC, and platelet counts; RBC osmotic fragility; RBC morphology; lactate and glucose levels; supernatant potassium levels. These were performed using standard procedures as described previously, Heaton et al., Vox Sang 57:37-42 (1989).
# Statistical analysis. Paired t-test or routine non-parametric statistical analysis was performed on data from the in vivo and in vitro testing of the units to determine if there were any statistically significant differences (1-tail) in the means between the test and control units. Statistical significance was considered at a p value less than 0.05.
# [4] = test system: coagulase negative staphylococci; experiment: Bacterial growth in spiked extended-storage platelet concentrates; assay type: cell-based; conditions: for Bacterial growth: platelet concentrate
# Protocol: Study Methods: Two ABO identical prestorage-leuko-reduced platelet concentrates produced by in line filtration of platelet rich plasma (MedSep Corp. Covina, Calif.) were pooled, then equally divided into two CLX® (MedSep) bags. Either LC, to a final concentration of 5 mM, or saline (control) was added to one of each pair. Each container was spiked with 1 ml of a coagulase negative staphylococcal suspension on Day 0 to a final concentration between 1-48 CFU/mL. Samples were removed from each container aseptically on Day 3, Day 6 and either Day 7 or Day 8 for colony count. Data were analyzed by paired t tests.
# transfused stored RBC = experiment: In vivo post-transfusion measurements of 42-day stored RBC (51Cr/99Tc labeling); design: species or system human; conditions: RBC stored 42 days with 5 mM LC, reinfused into donor
# Excerpt: Subjects. The subject population was male or female research subjects between the ages of 18 to 65 years with no known mental or physical disability and taking no drugs that might affect RBC viability. Individuals were recruited who fulfilled the conventional allogeneic donor criteria as listed in the Code of Federal Register, Chapter 2, the Standards of the American Association of Blood Banks, and the Blood Services Directives of the American National Red Cross. The study was approved by the Institutional Review Board of the Medical College of Hampton Roads and the subjects gave informed consent prior to participation in the study.
# Each donor donated on two different occasions separated by 72 days, and was randomized to either the test or control arm on the first donation.
# In vivo Post-transfusion Measurements. After 42 days of storage, a sample was withdrawn and the stored cells labeled with Cr using standard methods. At the same time, to determine RBC mass, a fresh sample was collected from the donor for RBC labeling with 99 Tc. After labeling, 15 μCi ^51Cr-labeled stored cells and 15 μCi ^99Tc-labeled fresh cells were mixed and simultaneously infused. Blood samples (5 mL) were taken after the infusion at various time intervals for up to 35 days to calculate 24-hour % recovery and survival. The 24-hour % recovery was determined using either the single label method where log-linear regression of the radioactivity levels of samples taken at 5, 7.5, 10, and 15 min. was used to determine 0 time level, or by the double label method using donor RBC mass as determined by the ^99Tc measurement.
# Circulating lifespan of the transfused surviving Cr-labeled RBC was determined by samples taken at 24 hours and then twice weekly for up to 5 weeks. The radioactivity levels were corrected for a constant 1% elution per day. The data were fitted to a linear function with post-transfusion days as independent variable (x-axis) and the corrected Cr counts as dependent variable (y-axis). The lifespan of the RBC was then taken as the intersection of the fitted line with the x-axis. […]
# stored RBC = experiment: Membrane complex lipid reacylation in stored RBC ([1-14C]palmitic acid incorporation); assay type: cell-based, human
# Protocol: Analysis of membrane complex lipid reacylation in stored RBC. Blood sample was withdrawn from stored RCC unit through a sampling site coupler with a syringe, and the sample processed immediately. This was done in a laminar flow hood under UV light. All the manipulations were conducted at 0-5° C. unless noted. RBC were washed two times with 4 vol. of cold 0.9% NaCl. Isolated RBC were once again washed with incubation buffer (NaCl 120 mM, KCl 5 mM, MgSO4 1 mM, NaH2PO4 1 mM, saccharose 40 mM, 5 mM glucose, Tris-HCl 10 mM, at pH 7.4) and resuspended in the same buffer at a final hematocrit of 5%. A Rotabath shaking bath at 37° C. was used for the incubations. RBC were incubated with the radioactive palmitic acid (10 μM) complexed to fatty acid free BSA (1.65 mg/ml), Incubations were ended by washing cells once with cold incubation buffer, three times with fatty acid free BSA 1% in incubation buffer, and finally once again with incubation buffer. RBC lipids were extracted from intact cells with the Rose & Oaklander procedure, J. Lipid Res. 6: 428-431 (1965). In order to prevent lipid oxidation, 0.1% butylated hydroxytoluene was added to the lipid extracts. Aliquots of the lipid extract were used for determination of lipid phosphorus content, and analyzed by two dimensional thin layer chromatography. Briefly, the chromatograms were developed using chloroform-methanol-28% ammonia (65:25:5) in the first dimension. The chromatograms were then developed using chloroform-acetone-methanol-acetic acid-water (6:8:2:2:1) in the second dimension. Phosphatidylcholine (PC), a phosphatidylethanolamine (PE), and phosphatidylserine were visualized by brief exposure of the plates to iodine and identified using standards as a reference. Individual phospholipid spots were scraped off into vials containing scintillation fluid and radioactivity was determined by liquid scintillation counting. The identification and analysis of radioactive PLC was carried out as recently described, Arduini et al., J. Biol. Chem. 267: 12673-81 (1992). Counting efficiency was evaluated by an external standard. […]
smiles,measurement,setting,value
"C[N+](C)(C)C[C@H](O)CC(=O)[O-] [L-Carnitine, L-carnitine]",Effect on glycolysis in stored platelet concentrates,[1],reduces glycosis; also recorded: reduces glycolysis
same,ESC (extent of shape change),[2],12 ± 4%
same,Glucose concentration,[2],1.13 ± 0.2
same,HSR (hypotonic shock response),[2],50 ± 22%
same,Lactate production,[2],1.50 ± 0.2 mM/10^12 platelets/day
same,pH,[2],7.09 ± 0.1
same,P-selectin (% positive),[2]; flow cytometry,69 ± 9%
same,ATP,"[3]; post-storage, 42 days at 4° C.",3.24 ± 0.38 μmol/g Hb
same,Glucose,"[3]; post-storage, 42 days at 4° C.",193 ± 40 mg/dL
same,Hemolysis,"[3]; post-storage, 42 days at 4° C.",0.30 ± 0.22 %
same,Lactate,"[3]; post-storage, 42 days at 4° C.",199 ± 37 mg/dL
same,Morphological Score,"[3]; post-storage, 42 days at 4° C.",68 ± 15
same,Osmotic Fragility,"[3]; post-storage, 42 days at 4° C.",50 ± 4%
same,Supernatant K+,"[3]; post-storage, 42 days at 4° C.",60 ± 3 mEq/L
same,pH,"[3]; post-storage, 42 days at 4° C.",6.32 ± 0.04
same,ATP,[3]; pre-storage (0 day),4.3 ± 0.4 μmol/g Hb
same,Osmotic Fragility,[3]; pre-storage (0 day),49 ± 4%
same,Supernatant Hb,[3]; pre-storage (0 day),26 ± 8 mg/dL
same,Supernatant K+,[3]; pre-storage (0 day),2.2 ± 0.3 mEq/L
same,Bacterial growth,"[4]; Day 0, 5 mM L-Carnitine",1.12 ± 0.7 Log CFU/ml
same,Bacterial growth,"[4]; Day 3, 5 mM L-Carnitine",3.04 ± 0.7 Log CFU/ml
same,Bacterial growth,"[4]; Day 6, 5 mM L-Carnitine",3.88 ± 1.0 Log CFU/ml
same,Growth relative to controls,"[4]; Day 7/8, 5 mM L-Carnitine",33%
same,Bacterial growth,"[4]; Day 7/8, 5 mM L-Carnitine",4.60 ± 1.5 Log CFU/ml
same,24 Hr % Recovery (single label),transfused stored RBC,84.0 ± 4.4%
same,24 Hr Recovery (double label),transfused stored RBC,83.9 ± 5.0
same,Survival (circulating lifespan of infused stored RBC),transfused stored RBC,96.1 ± 11.2 days
same,Radioactive palmitate incorporation into membrane PE,"stored RBC; RBC stored in LC-containing AS-3, over storage up to 42 days",sudden increase of PE reacylation toward the end of the storage
same,Radioactive palmitate incorporated into PLC (palmitoyl-L-carnitine),"stored RBC; RBC stored in LC-containing AS-3, over storage up to 42 days, listed as LC",initial increase (with a nadir at the 3 week) followed by a rapid decrease; also recorded: greater than that found in red cells stored without LC
same,Radioactive palmitate incorporation into membrane PC,"stored RBC; RBC stored in LC-containing AS-3 vs AS-3 alone, over storage",no differences were observed between the two red cell preparations
